Experiment [1] deals with Apple anthracnose (apple bitter rot) fungus, Colletotrichum gloeosporioides. The experiment can be described thus: Inhibitory effect test for hyphal elongation on PDA, 20° C., 2 days. In kind it is cell-based. The note with it: read-out: Inhibition rate (%). The method, then: (§1) Test Example 4: Inhibitory Effect Test for Hyphal Elongation (Apple Anthracnose (Apple Bitter Rot) Fungus, Colletotrichum gloeosporioides) A fungal flora (diameter: 4 mm) obtained by pre-cultivation was transplanted on PDA containing a given concentration of a chemical and then cultured at room temperature of 20° C. for 2 days, followed by measuring the diameter of the grown flora in the same manner as described in Test Example 3 to determine the hyphal elongation inhibition rate. In addition, theoretical values (of the hyphal elongation inhibition rate) were calculated according to the Colby's calculation formula based on the above determined hyphal elongation inhibition rate, and presented in parenthesis in the table.

In experiment [2] the test system is Apple anthracnose (apple bitter rot) fungus, Colletotrichum acutatum. The experiment is described as above. In kind it is cell-based. Particulars: read-out: Inhibition rate (%). On the procedure:
as §1, with “Test Example 5: Inhibitory Effect” for “Test Example 4: Inhibitory Effect”, “Fungus, Colletotrichum acutatum) A fungal” for “Fungus, Colletotrichum gloeosporioides) A fungal”, “the hyphal elongation, inhibition rate.” for “the hyphal elongation inhibition rate.”

In experiment [3] the test system is Pear scab (Japanese pear scab) fungus, Venturia nashicola. Put plainly: Inhibitory effect test for hyphal elongation on PDA, 20° C., 25 days. In kind it is cell-based. Particulars: read-out: Inhibition rate (%). On the procedure: Test Example 3: Inhibitory Effect Test for Hyphal Elongation (Pear Scab (Japanese Pear Scab) Fungus, Venturia nashicola) A fungal flora (diameter: 4 mm) obtained by pre-cultivation was transplanted on PDA (potato dextrose agar medium) containing a given concentration of a chemical and then cultured at room temperature of 20° C. for 25 days, followed by measuring the diameter (mm) of the grown flora to determine the hyphal elongation inhibition rate. In addition, theoretical values (of the hyphal elongation inhibition rate) were calculated according to the Colby's calculation formula based on the above determined hyphal elongation inhibition rate, and presented in parenthesis in the table. Inhibition rate=(1−a/b)×100 wherein a: “Mean diameter (mm) of flora in the treated area”—4, b: “Mean diameter (mm) of flora in the untreated area”—4 Colby's formula=(X+Y)−XY/100 X: Inhibition rate when using isofetamid alone Y: Inhibition rate when using mandestrobin alone. When the experimental value is higher than the theoretical value, the fungicide composition of the present invention has a synergistic effect on pear scab (Japanese pear scab) fungus.

Experiment [4] concerns pear scab (Japanese pear scab). Put plainly: Effect test against pear scab (Japanese pear scab), effect on fruits, sprayed adult pear trees. In kind it is in vivo, pear (cultivar: Housui). Particulars: 8 days after the final spraying. On the procedure: Test Example 2: Effect Test Against Pear Scab (Japanese Pear Scab) (Effect on Fruits) A given amount of a chemical was sprayed on adult trees of pear (cultivar: Housui) with a pressurized sprayer in an amount sufficient to drip from the leaves and fruits. The spraying was performed four times in total at intervals of 6 to 11 days, about 50 fruits per area were investigated about the presence or absence of the onset of the disease 8 days after the final spraying, and the ratio of the fruits with the onset of the disease and the disease control value were calculated (in triplicate). In addition, the theoretical value (of the disease control value) by mixing was also calculated according to the Colby's formula. Disease control value=(1−a/b)×100 wherein a: Mean ratio of fruits with the onset of the disease in the treated area, b: Mean ratio of fruits with the onset of the disease in the untreated area.

Experiment [5] relates to pear scab (Japanese pear scab). The experiment can be described thus: Effect test against pear scab (Japanese pear scab), effect on leaves, sprayed adult pear trees. In kind it is in vivo, pear (cultivar: Housui). The note with it: sprayed four times. On the procedure:
Test Example 1: Effect Test Against Pear Scab (Japanese Pear Scab) (Effect on Leaves) A given amount of a chemical was sprayed on adult trees of pear (cultivar: Housui) with a pressurized sprayer in an amount sufficient to drip from the leaves. The spraying was performed four times in total at intervals of 8 to 10 days, about 50 leaves per area were investigated about the presence or absence of the onset of the disease days after the final spraying, and the ratio of the leaves with the onset of the disease and the disease control value were calculated (in triplicate). In addition, the theoretical value (of the disease control value) by mixing was also calculated according to the Colby's formula. Disease control value=(1−a/b)×100 wherein a: Mean ratio of leaves with the onset of the disease in the treated area, b: Mean ratio of leaves with the onset of the disease in the untreated area; Colby's formula=(X+Y)−XY/100 wherein X: Disease control value when using isofetamid alone, Y: Disease control value when using mandestrobin alone. When the actually measured value is higher than the theoretical value, the fungicide composition of the present invention has a synergistic effect on pear scab (Japanese pear scab).

Where [6] appears, read: Mandestrobin 0.01 ppm alone (Isofetamid 0 ppm).
Setting [7] is: Mandestrobin 0.1 ppm alone (Isofetamid 0 ppm).
[8] abbreviates: Mandestrobin 1 ppm alone (Isofetamid 0 ppm).
The mark [9] stands for this setting: Mandestrobin 10 ppm alone (Isofetamid 0 ppm).
The mark [10] stands for this setting: Isofetamid 0.01 ppm alone (Mandestrobin 0 ppm).
The mark [11] stands for this setting: Isofetamid 0.1 ppm alone (Mandestrobin 0 ppm).
The mark [12] stands for this setting: Isofetamid 1 ppm alone (Mandestrobin 0 ppm).
Where [13] appears, read: Isofetamid 10 ppm alone (Mandestrobin 0 ppm).

Where two headings read alike, the source gives them in different places.

The inhibition is the drop in the measured response relative to a control, in per cent.

On to `CNC(=O)C(OC)c1ccccc1COc1cc(C)ccc1C` (racemic) [Mandestrobin, (RS)-2-methoxy-N-methyl-2-[α-(2,5-xylyloxy)-o-tolyl]acetamide], for which the inhibition at 0.01 ppm turned out to be 1.9% in experiment [1] (setting [6]), 0% in experiment [2] (setting [6]) and 0% in experiment [3] (setting [6]). In addition, the results for the inhibition at 0.1 ppm in experiment [1] (setting [7]), in experiment [2] (setting [7]) and in experiment [3] (setting [7]) were 3.8%, 0% and 12.8%, respectively. The inhibition at 1 ppm in experiment [1] (setting [8]) worked out at 14.1%; in experiment [2] (setting [8]) it was 42.6%; in experiment [3] (setting [8]) it was 27.7%. The inhibition at 10 ppm was 33.3% in experiment [1] (setting [9]), 55.4% in experiment [2] (setting [9]) and 44.7% in experiment [3] (setting [9]). Also, the Disease control value in experiment [4] (Mandestrobin 70 ppm) is reported as 77.5; in experiment [4] (Mandestrobin 100 ppm), 90.1; in experiment [4] (Mandestrobin 140 ppm) it was 93.4; in experiment [5] (Mandestrobin 70 ppm), 65.9; in experiment [5] (Mandestrobin 140 ppm), 74.9. The entries for the “Ratio of fruits with onset of disease (%)” value in experiment [4] (Mandestrobin 70 ppm), in experiment [4] (Mandestrobin 100 ppm) and in experiment [4] (Mandestrobin 140 ppm) were 10.3%, 4.5% and 3.0%, respectively. The figures for the “Ratio of leaves with onset of disease (%)” value in experiment [5] (Mandestrobin 70 ppm) and in experiment [5] (Mandestrobin 140 ppm) were 31.7% and 23.3%, respectively.
Regarding `Cc1cc(OC(C)C)ccc1C(=O)C(C)(C)NC(=O)c1sccc1C` [Isofetamid, N-[1,1-dimethyl-2-(4-isopropoxy-o-tolyl)-2-oxoethyl]-3-methylthiophene-2-carboxamide], the inhibition at 0.01 ppm in experiment [1] (setting [10]) was 0%; in experiment [2] (setting [10]), 6.9%; in experiment [3] (setting [10]), 0%. Moreover, the inhibition at 0.1 ppm stood at 0% in experiment [1] (setting [11]), 3% in experiment [2] (setting [11]) and 8.5% in experiment [3] (setting [11]). For the same compound, the figures for the inhibition at 1 ppm in experiment [1] (setting [12]), in experiment [2] (setting [12]) and in experiment [3] (setting [12]) were 0%, 0% and 49.6%, respectively. The results for the inhibition at 10 ppm in experiment [1] (setting [13]), in experiment [2] (setting [13]) and in experiment [3] (setting [13]) were 2.6%, 24.8% and 100%, respectively. Further, the Disease control value in experiment [4] (Isofetamid 93 ppm) is on record as 83.4; in experiment [4] (Isofetamid 134 ppm) it was 77.5; in experiment [4] (Isofetamid 187 ppm), 62.3; in experiment [5] (Isofetamid 90 ppm), 66.3; in experiment [5] (Isofetamid 190 ppm), 56.4. The results for the “Ratio of fruits with onset of disease (%)” value in experiment [4] (Isofetamid 93 ppm), in experiment [4] (Isofetamid 134 ppm) and in experiment [4] (Isofetamid 187 ppm) were 7.6%, 10.3% and 17.2%, respectively. Moreover, the figures for the “Ratio of leaves with onset of disease (%)” value in experiment [5] (Isofetamid 90 ppm) and in experiment [5] (Isofetamid 190 ppm) were 31.3% and 40.5%, respectively.

The record behind these values is patent US11653650B2, “Fungicide composition and method for controlling disease of crop” (ISHIHARA SANGYO KAISHA, LTD., priority 2017, dated 2023).
